biological target: T1, NS3 genotype 3a protease (UniProt Q81258); assay: Ki determination, NS3 protease genotype 3a (fluorogenic depsipeptide substrate); type: biochemical, hepatitis C virus; conditions: 200 pM enzyme, 20 μM NS4A peptide, 2 μM substrate, read-out: Ki 3A
T1 construct: Purified NS3 protease domain (amino acids 1-181) of the genotype 1b and 3a virus were generated as above; fused on or other part: N-terminal hexahistidine tag and rTEV protease cleavage site (vector p28-N6H-Tev-NS3(181)3)
T1 sequence (Q81258 1033-1663): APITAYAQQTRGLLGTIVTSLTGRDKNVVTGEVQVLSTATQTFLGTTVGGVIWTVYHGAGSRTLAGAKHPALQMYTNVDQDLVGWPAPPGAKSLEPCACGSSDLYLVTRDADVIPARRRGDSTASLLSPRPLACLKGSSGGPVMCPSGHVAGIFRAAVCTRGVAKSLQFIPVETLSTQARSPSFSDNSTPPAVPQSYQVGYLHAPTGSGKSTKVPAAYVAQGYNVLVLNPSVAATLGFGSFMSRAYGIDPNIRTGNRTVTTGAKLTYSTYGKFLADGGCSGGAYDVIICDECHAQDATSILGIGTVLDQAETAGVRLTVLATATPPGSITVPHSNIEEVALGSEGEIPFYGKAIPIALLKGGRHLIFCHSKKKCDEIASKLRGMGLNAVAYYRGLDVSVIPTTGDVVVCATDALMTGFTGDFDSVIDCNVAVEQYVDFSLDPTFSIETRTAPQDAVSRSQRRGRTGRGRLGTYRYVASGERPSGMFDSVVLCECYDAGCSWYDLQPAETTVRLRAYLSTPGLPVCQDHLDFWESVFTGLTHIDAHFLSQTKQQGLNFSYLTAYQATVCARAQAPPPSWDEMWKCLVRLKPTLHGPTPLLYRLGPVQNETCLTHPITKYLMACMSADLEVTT
Outline: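 Refolded His-tagged NS3 protease domain (aa 1-181, genotype 3a) at 200 pM with 20 μM NS4A peptide was pre-incubated 1 h at RT with inhibitor (100 nM–5 pM, 3-fold), then 2 μM FRET depsipeptide substrate was added in HEPES/40% glycerol/10% DMSO buffer. Steady-state rates over 90-120 min (ex 340/em 490 nm) versus inhibitor concentration gave Ki.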

Q: For CC[C@@H]1[C@@H]2CN(C(=O)[C@H](C(C)(C)C)NC(=O)O[C@@H]3C[C@H]3CCCCCc3nc4ccc(OC)cc4nc3O2)[C@@H]1C(=O)N[C@]1(C(=O)NS(=O)(=O)C2(C)CC2)C[C@H]1CC(F)F [Example 67, (1aR,5S,8S,9S,10R,22aR)-5-tert-butyl-N-[(1R,2S)-2-(2,2-difluoroethyl)-1-{[(1-methylcyclopropyl)sulfonyl]carbamoyl}cyclopropyl]-9-ethyl-14-methoxy-3,6-dioxo-1,1a,3,4,5,6,9,10,18,19,20,21,22,22a-tetradecahydro-8H-7,10-methanocyclopropa[18,19][1,10,3,6]dioxadiazacyclononadecino[11,12-b]quinoxaline-8-carboxamide], which Ki is on record?
A: The Ki was 0.32 nM.

Q: COc1ccc2nc3c(nc2c1)O[C@H]1CN(C(=O)[C@H](C(C)(C)C)NC(=O)O[C@@H]2C[C@@H]4C[C@@H]4[C@H]2CCCCC3(F)F)[C@H](C(=O)N[C@]2(C(=O)NS(=O)(=O)C3(C)CC3)C[C@H]2C(F)F)[C@@H]1C [Example 81, (1aS,2aR,6S,9S,10S,11R,23aR,23bS)-6-tert-butyl-N-[(1R,2R)-2-(difluoromethyl)-1-{[(1-methylcyclopropyl)sulfonyl]carbamoyl}cyclopropyl]-19,19-difluoro-15-methoxy-10-methyl-4,7-dioxo-1a,2,2a,4,5,6,7,10,11,19,20,21,22,23,23a,23b-hexadecahydro-1H,9H-8,11-methanocyclopropa[4′,5′]cyclopenta[1′,2′:18,19][1,10,3,6]dioxadiazacyclononade cino[11,12-b]quinoxaline-9-carboxamide] was tested. Which Ki did it give?
A: The Ki was 0.05 nM.

Q: For COc1ccc2nc3c(nc2c1)O[C@H]1CN(C(=O)[C@H](C(C)(C)C)NC(=O)O[C@@]2(C)C[C@@H]2CCCCC3)[C@H](C(=O)N[C@]2(C(=O)NS(=O)(=O)C3(C)CC3)C[C@H]2C(F)F)[C@@H]1C [Example 45, (1aS,5S,8S,9S,10R,22aS)-5-tert-butyl-N-[(1R,2R)-2-(difluoromethyl)-1-{[(1-methylcyclopropyl)sulfonyl]carbamoyl}cyclopropyl]-14-methoxy-1a,9-dimethyl-3,6-dioxo-1,1a,3,4,5,6,9,10,18,19,20,21,22,22a-tetradecahydro-8H-7,10-methanocyclopropa[18,19][1,10,3,6]dioxadiazacyclononadecino[11,12-b]quinoxaline-8-carboxamide], which Ki is on record?
A: Its Ki is 0.48 nM.

Q: CC[C@@H]1[C@@H]2CN(C(=O)[C@H](C(C)(C)C)NC(=O)O[C@]3(C)CCC[C@H]3CCCCCc3nc4ccc(OC)cc4nc3O2)[C@@H]1C(=O)N[C@]1(C(=O)NS(=O)(=O)C2CC2)C[C@H]1CC [Example 51] was tested. Which Ki did it give?
A: Its Ki is 0.84 nM.

Q: For CC[C@@H]1[C@@H]2CN(C(=O)[C@H](C(C)(C)C)NC(=O)O[C@@H]3C[C@H]3CCCCCc3nc4ccc(OC)cc4nc3O2)[C@@H]1C(=O)N[C@]1(C(=O)NS(=O)(=O)C2CC2)C[C@H]1C(F)F [Example 2, (1aR,5S,8S,9S,10R,22aR)-5-tert-butyl-N-[(1R,2R)-1-[(cyclopropylsulfonyl)carbamoyl]-2-(difluoromethyl)cyclopropyl]-9-ethyl-14-methoxy-3,6-dioxo-1,1a,3,4,5,6,9,10,18,19,20,21,22,22a-tetradecahydro-8H-7,10-methanocyclopropa[18,19][1,10,3,6]dioxadiazacyclononadecino[11,12-b]quinoxaline-8-carboxamide], which Ki is on record?
A: The Ki was 0.04 nM.

same assay, conditions: read-out: Ki 3A, 200 pM enzyme, 20 μM NS4A peptide, 2 μM substrate

Q: Which Ki does the source give for CCC[C@@H]1[C@@H]2CN(C(=O)[C@H](C(C)(C)C)NC(=O)O[C@@H]3C[C@H]3CCCCC(F)(F)c3nc4ccc(OC)cc4nc3O2)[C@@H]1C(=O)N[C@]1(C(=O)NS(=O)(=O)C2(C)CC2)C[C@H]1C(F)F [Example 65, (1aR,5S,8S,9S,10R,22aR)-5-tert-butyl-N-[(1R,2R)-2-(difluoromethyl)-1-{[(1-methylcyclopropyl)sulfonyl]carbamoyl}cyclopropyl]-18,18-difluoro-14-methoxy-3,6-dioxo-9-propyl-1,1a,3,4,5,6,9,10,18,19,20,21,22,22a-tetradecahydro-8H-7,10-methanocyclopropa[18,19][1,10,3,6]dioxadiazacyclononadecino[11,12-b]quinoxaline-8-carboxamide] here?
A: The Ki was 0.07 nM.

Q: Which Ki does the source give for COc1ccc2nc3c(nc2c1)O[C@H]1CN(C(=O)[C@H](C(C)(C)C)NC(=O)O[C@@H]2C[C@@H]4C[C@@H]4[C@H]2CCCCC3)[C@H](C(=O)N[C@]2(C(=O)NS(=O)(=O)C3(C)CC3)C[C@H]2CC(F)F)[C@@H]1C [Example 58, (1aS,2aR,6S,9S,10S,11R,23aR,23bS)-6-tert-butyl-N-[(1R,2S)-2-(2,2-difluoroethyl)-1-{[(1-methylcyclopropyl)sulfonyl]carbamoyl}cyclopropyl]-15-methoxy-10-methyl-4,7-dioxo-1a,2,2a,4,5,6,7,10,11,19,20,21,22,23,23a,23b-hexadecahydro-1H,9H-8,11-methanocyclopropa[4′,5′]cyclopenta[1′,2′:18,19][1,10,3,6]dioxadiazacyclononade cino[11,12-b]quinoxaline-9-carboxamide] here?
A: The Ki was 0.17 nM.

Source: patent US20150175655A1 (priority 2012, published 2015)
